Test results reported in ChEMBL document CHEMBL1201862, “PubChem BioAssay data set” (2004).
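Compound exposure: 48 hours, 5 concentrations, 96-well plates. GI50: concentration for 50% inhibition of growth.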 Activity calls are given as the source filed them. Rule as the data show it: active = GI50 up to about 1.1 µM and inactive = higher.

Tests used:
Assay in all cases: NCI tumour cell line growth inhibition, 48 h
[1] = tested on: A549
[2] = tested on: CCRF-CEM
[3] = tested on: COLO 205
[4] = tested on: HCC 2998
[5] = tested on: HT-29
[6] = tested on: MCF7
[7] = tested on: MDA-N
[8] = tested on: NCI-H226
[9] = tested on: NCI-H23
[10] = tested on: NCI-H522
[11] = tested on: NCI/ADR-RES
[12] = tested on: OVCAR-3
[13] = tested on: OVCAR-8
[14] = tested on: RPMI-8226
[15] = tested on: SF-268
[16] = tested on: SF-295
[17] = tested on: SK-MEL-5
[18] = tested on: T47D
[19] = tested on: U-251
[20] = tested on: UACC-62

SMILES | GI50 [1] | GI50 [2] | GI50 [3] | GI50 [4] | GI50 [5] | GI50 [6] | GI50 [7] | GI50 [8] | GI50 [9] | GI50 [10] | GI50 [11] | GI50 [12] | GI50 [13] | GI50 [14] | GI50 [15] | GI50 [16] | GI50 [17] | GI50 [18] | GI50 [19] | GI50 [20]
CC(C)C(/C=C/c1ccc(Cl)cc1)=N\NC(=O)N/N=C(/C=C/c1ccc(Cl)cc1)C(C)C | 19 µM (inactive) | 46.5 µM (inactive) | 45.3 µM (inactive) | 83.4 µM (inactive) | 42.3 µM (inactive) | > 100 µM (inactive) | 36.6 µM (inactive) | 30.8 µM (inactive) | 21.9 µM (inactive) | > 10 µM (inactive) | 26.7 µM (inactive) | 19.6 µM (inactive) | 19.4 µM (inactive) | > 100 µM (inactive) | 20 µM (inactive) | 22.9 µM (inactive) | 64.6 µM (inactive) | 40.8 µM (inactive) | 16.9 µM (inactive) | 35.5 µM (inactive)
C=C1C[C@@H]2O[C@H]3[C@H]4[C@@H](C[C@@H](C)[C@@H](OC(C)=O)[C@H]42)[C@@H](C)CO[C@@]3(C)[C@H](OC(=O)CCCCCCC)CC1=O | 18.4 µM (inactive) | 5.85 µM (inactive) | 13.9 µM (inactive) | 17 µM (inactive) | 20.9 µM (inactive) | 18.5 µM (inactive) | 16.8 µM (inactive) | 21.2 µM (inactive) | 20.6 µM (inactive) | 19.6 µM (inactive) | 17.9 µM (inactive) | 18.2 µM (inactive) | 13.6 µM (inactive) | 2.64 µM (inactive) | 18.8 µM (inactive) | 19.5 µM (inactive) | 15 µM (inactive) | 15.4 µM (inactive) | 16.8 µM (inactive) | 16.5 µM (inactive)
Cc1nc(-c2ccc(Cl)cc2)cn2c1nc1ccccc12 | > 100 µM (inactive) | 23.5 µM (inactive) | > 43.3 µM (inactive) | > 100 µM (inactive) | 99.1 µM (inactive) | 0.647 µM (active) | > 100 µM (inactive) | > 100 µM (inactive) | > 100 µM (inactive) | > 100 µM (inactive) | > 86.3 µM (inactive) | > 100 µM (inactive) | > 100 µM (inactive) | > 100 µM (inactive) | > 100 µM (inactive) | > 100 µM (inactive) | 5.14 µM (inactive) | 0.955 µM (active) | > 100 µM (inactive) | > 100 µM (inactive)
CCN(CC)CCn1c(=O)c2cccnc2n2c3c(=O)n(C)c(=O)n(C)c3nc12 | 59.4 µM (inactive) | 64.6 µM (inactive) | 70.3 µM (inactive) | 72.4 µM (inactive) | > 100 µM (inactive) | 45.1 µM (inactive) | > 100 µM (inactive) | 95.1 µM (inactive) | > 100 µM (inactive) | > 100 µM (inactive) | > 100 µM (inactive) | > 100 µM (inactive) | > 100 µM (inactive) | > 100 µM (inactive) | > 100 µM (inactive) | > 100 µM (inactive) | 47.1 µM (inactive) | > 100 µM (inactive) | > 100 µM (inactive) | 57 µM (inactive)
COc1ccc2ccc3oc(=O)c(C)cc3c2c1 | > 100 µM (inactive) | > 100 µM (inactive) | > 100 µM (inactive) | 39.6 µM (inactive) | > 100 µM (inactive) | > 100 µM (inactive) | > 100 µM (inactive) | > 100 µM (inactive) | > 100 µM (inactive) | > 100 µM (inactive) | > 100 µM (inactive) | > 100 µM (inactive) | > 100 µM (inactive) | > 100 µM (inactive) | > 100 µM (inactive) | > 100 µM (inactive) | > 100 µM (inactive) | 43.3 µM (inactive) | > 100 µM (inactive) | 10.9 µM (inactive)
COC(=O)C(Cc1cn(C(C)=O)c2ccccc12)P(=O)(OC)OC (stereo not given) | > 100 µM (inactive) | > 100 µM (inactive) | > 100 µM (inactive) | > 100 µM (inactive) | > 100 µM (inactive) | 20.7 µM (inactive) | > 100 µM (inactive) | > 100 µM (inactive) | > 100 µM (inactive) | > 100 µM (inactive) | > 100 µM (inactive) | > 100 µM (inactive) | > 100 µM (inactive) | > 100 µM (inactive) | > 100 µM (inactive) | > 100 µM (inactive) | > 100 µM (inactive) | > 100 µM (inactive) | > 100 µM (inactive) | > 100 µM (inactive)
O=[N+]([O-])c1cccc2nc3ccccc3c(NCCc3cccc[n+]3[O-])c12 | < 0.0159 µM (active) | < 0.0318 µM (active) | < 0.01 µM (active) | < 0.01 µM (active) | 0.0103 µM (active) | < 0.0116 µM (active) | 0.0153 µM (active) | 0.0738 µM (active) | < 0.0115 µM (active) | 0.0187 µM (active) | 0.608 µM (active) | < 0.0385 µM (active) | < 0.0176 µM (active) | 0.0123 µM (active) | < 0.0476 µM (active) | < 0.0368 µM (active) | < 0.01 µM (active) | < 0.0378 µM (active) | < 0.038 µM (active) | 0.052 µM (active)
CCOC(=O)N1CCN(c2ccc3c(C)cc(C)nc3n2)CC1 | > 100 µM (inactive) | > 100 µM (inactive) | > 100 µM (inactive) | > 100 µM (inactive) | > 100 µM (inactive) | > 100 µM (inactive) | > 100 µM (inactive) | > 100 µM (inactive) | > 100 µM (inactive) | > 100 µM (inactive) | > 100 µM (inactive) | > 100 µM (inactive) | > 100 µM (inactive) | > 100 µM (inactive) | > 100 µM (inactive) | > 100 µM (inactive) | > 100 µM (inactive) | > 100 µM (inactive) | > 100 µM (inactive) | > 100 µM (inactive)
O=C(SC1=NCCN1)c1cccc2ccccc12 | > 100 µM (inactive) | 21.8 µM (inactive) | > 100 µM (inactive) | > 100 µM (inactive) | 38.6 µM (inactive) | 50.9 µM (inactive) | 76 µM (inactive) | 32.3 µM (inactive) | 63.5 µM (inactive) | 19.5 µM (inactive) | 31.6 µM (inactive) | 56.9 µM (inactive) | 71.9 µM (inactive) | 27.8 µM (inactive) | > 100 µM (inactive) | 36.8 µM (inactive) | 66.5 µM (inactive) | 44.9 µM (inactive) | 45.5 µM (inactive) | > 100 µM (inactive)
O=C1C=CC(=O)c2c1cc([N+](=O)[O-])c1ccoc21 | 20.9 µM (inactive) | 2.1 µM (inactive) | 2.49 µM (inactive) | 19.5 µM (inactive) | 17.3 µM (inactive) | 14.3 µM (inactive) | 17.1 µM (inactive) | 26.6 µM (inactive) | 22.6 µM (inactive) | 2.07 µM (inactive) | 22.6 µM (inactive) | 11.5 µM (inactive) | 26.2 µM (inactive) | 4.37 µM (inactive) | 26.2 µM (inactive) | 19.1 µM (inactive) | 16.4 µM (inactive) | 2.8 µM (inactive) | 18.5 µM (inactive) | 15.8 µM (inactive)
c1ccc(CSc2nnc3c4ccccc4c4ccccc4c3n2)cc1 | > 89.3 µM (inactive) | 27.7 µM (inactive) | > 100 µM (inactive) | 51.1 µM (inactive) | > 100 µM (inactive) | 29.1 µM (inactive) | 56.1 µM (inactive) | 45.6 µM (inactive) | 48.2 µM (inactive) | 33.2 µM (inactive) | 60.5 µM (inactive) | 21.7 µM (inactive) | 35.5 µM (inactive) | 48 µM (inactive) | 19.1 µM (inactive) | 23.2 µM (inactive) | > 100 µM (inactive) | 34.1 µM (inactive) | 33.3 µM (inactive) | 46 µM (inactive)
CN1CN(c2ccccc2)C2(CCN(Cc3csc4ccccc34)CC2)C1=O | 18.6 µM (inactive) | 17.5 µM (inactive) | 11.1 µM (inactive) | 13.4 µM (inactive) | 4.83 µM (inactive) | 11.6 µM (inactive) | 15.2 µM (inactive) | 21 µM (inactive) | 6.44 µM (inactive) | 9.23 µM (inactive) | 8.97 µM (inactive) | 8.85 µM (inactive) | 16.2 µM (inactive) | 2.16 µM (inactive) | 22.3 µM (inactive) | 11.8 µM (inactive) | 7.78 µM (inactive) | 5.11 µM (inactive) | 8.55 µM (inactive) | 22.8 µM (inactive)
C[N+](C)(C)CC(=O)N/N=C(\C(=O)NC1=C(Cl)C(=O)c2ccccc2C1=O)C(C#N)c1nc(-c2ccc([N+](=O)[O-])cc2)cs1 (stereo not given) | 4.54 µM (inactive) | 8.28 µM (inactive) | 17.2 µM (inactive) | 14.1 µM (inactive) | 8.38 µM (inactive) | 5.41 µM (inactive) | 1.74 µM (inactive) | 11.4 µM (inactive) | 2.51 µM (inactive) | 7.31 µM (inactive) | 11.7 µM (inactive) | 1.02 µM (active) | 9.35 µM (inactive) | 6.53 µM (inactive) | 12.3 µM (inactive) | 6.37 µM (inactive) | 1.13 µM (inactive) | 5.85 µM (inactive) | 6.97 µM (inactive) | 3.83 µM (inactive)
COc1ccc(-n2sc3ncc(C)cc3c2=O)cc1 | 20.7 µM (inactive) | 10.6 µM (inactive) | 16.1 µM (inactive) | 62.2 µM (inactive) | 17.4 µM (inactive) | 23.7 µM (inactive) | 16.5 µM (inactive) | 26.2 µM (inactive) | 26.2 µM (inactive) | 20.6 µM (inactive) | 26.5 µM (inactive) | 16.9 µM (inactive) | 18.2 µM (inactive) | 26.2 µM (inactive) | 20.9 µM (inactive) | 50.1 µM (inactive) | 13.2 µM (inactive) | 17.5 µM (inactive) | 22.4 µM (inactive) | 17.5 µM (inactive)
